Assays:
PLK1 kinase domain = target: T1, PLK1 kinase domain (Homo sapiens, UniProt P53350); assay: Assay for Inhibition of PLK1 (SPA, 33P-ATP); format: biochemical; conditions: 2 nM PLK1 kinase domain, 1 μM ATP, 22° C.; read-out: PLK1 pIC50 (converted)
T1 construct: made in house; host or cells: baculovirus infected T. ni cells
Experimental: A. Preparation of 6× N-Terminal His-Tagged PLK Kinase Domain
All procedures were performed at 4° C. Cells were lysed in 50 mM HEPES, 200 mM NaCl, 50 mM imidazole, 5% glycerol; pH 7.5. The homogenate was centrifuged at 14K rpm in a SLA-1500 rotor for 1 hr and the supernatant filtered through a 1.2 micron filter. The supernatant was loaded onto a Nickel chelating Sepharose (Amersham Pharmacia) column and washed with lysis buffer. Protein was eluted using 20%, 30% and 100% buffer B steps where buffer B was 50 mM HEPES, 200 mM NaCl, 300 mM imidazole, 5% glycerol; pH 7.5. Fractions containing PLK were determined by SDS-PAGE. Fractions containing PLK were diluted five-fold with 50 mM HEPES, 1 mM DTT, 5% glycerol; pH 7.5, then loaded on an SP Sepharose (Amersham Pharmacia) column. After washing the column with 50 mM HEPES, 1 mM DTT, 5% glycerol; pH 7.5, PLK was step eluted with 50 mM HEPES, 1 mM DTT, 500 mM NaCl; 5% glycerol; pH 7.5. PLK was concentrated using a 10 kDa molecular weight cutoff membrane and then loaded onto a Superdex 200 gel filtration (Amersham Pharmacia) column equilibrated in 25 mM HEPES, 1 mM DTT, 500 mM NaCl, 5% glycerol; pH 7.5. Fractions containing PLK were determined by SDS-PAGE. PLK was pooled, aliquoted and stored at −80° C. Samples were quality controlled using mass spectrometry, N-terminal sequencing and amino acid analysis.
B. Enzyme Activity +/− Inhibitors was Determined as Follows:
All measurements were obtained under conditions where signal production increased linearly with time and enzyme. Test compounds were added to white 384-well assay plates (0.1 μL for 10 μL and some 20 μL assays, 1 μL for some 20 μL assays) at variable known concentrations in 100% DMSO. DMSO (1-5% final, as appropriate) and EDTA (65 mM in reaction) were used as controls.
Reaction Mix (10 or 20 μL) was quickly added to each well immediately following addition of enzyme via automated liquid handlers and incubated 1-1.5 h at 22° C. The 20 μL enzymatic reactions were stopped with 50 μL of stop mix (50 mM EDTA, 4.0 mg/mL Streptavidin SPA beads in Standard Dulbecco's PBS (without Mg^2+ and Ca^2+), 50 μM ATP) per well. The 10 μL reactions were stopped with 10 μL of stop mix (50 mM EDTA, 3.0 mg/mL Streptavidin-coupled SPA Imaging Beads (“LeadSeeker”) in Standard Dulbecco's PBS (without Mg^2+ and Ca^2+), 50 μM ATP) per well. Plates were sealed with clear plastic seals, spun at 500×g for 1 min or settled overnight, and counted in Packard TopCount for 30 seconds/well (regular SPA) or imaged using a Viewlux imager (LeadSeeker SPA). Signal above background (EDTA controls) was converted to percent inhibition relative to that obtained in control (DMSO-only) wells.

[1] = test system: HCT-116 (human colon) cells; assay: Cell-Titer Glo Cell Growth Inhibition Assay; format: cell-based; conditions: HCT-116 cells, 72 h incubation, CellTiter-Glo, read-out: HCT116 IC50
Experimental: A549-L (human lung), Colo 205 (human colon), HCT-116 (human colon), HT29 (human colon), MX-1 (human breast), SKOV3 (human ovary) and P388 (murine leukemia) cell lines were cultured in RPM11640 containing 10% fetal bovine serum at 37° C. in a 5% CO2 incubator. Cell lines were split into T75 flasks (Falcon #353136) two to three days prior to assay set up at density which yields approximately 70-80% confluency at time of harvest for assay. Cells were harvested using 0.25% trypsin with EDTA (Glibco/Invitrogen #25200-056), Cell counts were performed on cell suspensions using Trypan Blue exclusion staining, cells were then plated in 105 µL of culture media per well at the following densities in 96 well Costar #3916 black flat bottom plates: A549-L 500 cells/well, Colo205 500 cells/well, HCT-116 500 cells/well, HT29 500 cells/well, MX-1 500 cells/well, SKOV3 500 cells/well and P388 250 cells/well. All plates were placed at 5% CO2 37° C. overnight and then test compounds were added the following day. One plate of each cell type was treated with CellTiter-Glo (Promega #G7573) for a day 0 proliferation measurement and read as described below. The test compounds were prepared in clear U bottom polypropylene 96 well plates (Falcon #35-1190 with consecutive two fold dilutions. 9 uL of these dilutions was added into each well of the cell plates. The final concentration of DMSO in all wells was 0.15%. Cells were incubated at 37° C., 5% CO2 for 72 h. Following 72 h of incubation with compounds each plate was developed and read. CellTiter-Glo reagent was added to assay plates using a volume equivalent to the cell culture volume in the wells. Plates were shaken for approximately 2 min and incubated at rt for approximately 15 min and the chemiluminescent signal was read on the Victor V or Envison 2100 reader. […] Concentration of compound that inhibited 50% of cell growth (IC50) was analyzed by 4 or 6 parameter fit of data using XLfit, value of no cell addition was substracted from all samples for background.

T1 sequence (P53350 21-346): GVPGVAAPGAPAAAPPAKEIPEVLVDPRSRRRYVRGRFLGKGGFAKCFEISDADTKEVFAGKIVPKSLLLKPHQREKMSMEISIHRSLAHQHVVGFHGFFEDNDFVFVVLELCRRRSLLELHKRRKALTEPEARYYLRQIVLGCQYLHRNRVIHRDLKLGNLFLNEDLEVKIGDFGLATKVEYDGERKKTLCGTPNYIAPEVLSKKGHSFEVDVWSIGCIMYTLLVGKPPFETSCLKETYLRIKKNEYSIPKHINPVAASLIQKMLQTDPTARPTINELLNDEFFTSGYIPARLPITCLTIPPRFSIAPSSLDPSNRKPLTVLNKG

Which IC50 (PLK1 kinase domain) does the source give for `C[C@@H](Oc1cc(-n2cnc3cc(-c4ccnc(NCCN5CCOCC5)c4)ccc32)sc1C(N)=O)c1ccccc1Cl` [Example 12, 3-{[(1R)-1-(2-chlorophenyl)ethyl]oxy}-5-[5-(2-{[2-(4-morpholinyl)ethyl]amino}-4-pyridinyl)-1H-benzimidazol-1-yl]-2-thiophenecarboxamide] here?
Its IC50 is under 0.1 µM.

What about the IC50 [1] of the same compound?
Its IC50 is under 0.5 µM.

Which results are given for `C[C@@H](Oc1cc(-n2cnc3cc(-c4cnc(NCCN(C)C)nc4)ccc32)sc1C(N)=O)c1ccccc1Cl` [Example 19, 3-{[(1R)-1-(2-Chlorophenyl)ethyl]oxy}-5-[5-(2-{[2-(dimethylamino)ethyl]amino}-5-pyrimidinyl)-1H-benzimidazol-1-yl]-2-thiophenecarboxamide]?
IC50 (PLK1 kinase domain): < 0.1 µM; IC50 [1]: < 0.5 µM

Which results are given for `C[C@@H](Oc1cc(-n2cnc3cc(-c4ccc(NCCN(C)C)nc4)ccc32)sc1C(N)=O)c1ccccc1Cl` [Example 30, 3-{[(1R)-1-(2-chlorophenyl)ethyl]oxy}-5-[5-(6-{[2-(dimethylamino)ethyl]amino}-3-pyridinyl)-1H-benzimidazol-1-yl]-2-thiophenecarboxamide]?
IC50 (PLK1 kinase domain): < 0.1 µM; IC50 [1]: < 0.5 µM

What does the source list for `C[C@@H](Oc1cc(-n2cnc3cc(-c4ccc(NCCCN(C)C)nc4)ccc32)sc1C(N)=O)c1ccccc1Cl` [Example 29, 3-{[(1R)-1-(2-chlorophenyl)ethyl]oxy}-5-[5-(6-{[3-(dimethylamino)propyl]amino}-3-pyridinyl)-1H-benzimidazol-1-yl]-2-thiophenecarboxamide]?
IC50 (PLK1 kinase domain): < 0.1 µM; IC50 [1]: < 0.5 µM

`C[C@@H](Oc1cc(-n2cnc3cc(-c4ccc(NCCO)nc4)ccc32)sc1C(N)=O)c1ccccc1Cl` [Example 28, 3-{[(1R)-1-(2-chlorophenyl)ethyl]oxy}-5-(5-[6-[(2-hydroxyethyl)amino]-3-pyridinyl]-1H-benzimidazol-1-yl)-2-thiophenecarboxamide] was tested. Which IC50 (PLK1 kinase domain) did it give?
The IC50 was under 0.1 µM.

What about the IC50 [1] of the same compound?
Its IC50 is under 0.5 µM.

`C[C@@H](Oc1cc(-n2cnc3cc(-c4ccc(NCCN5CCOCC5)nc4)ccc32)sc1C(N)=O)c1ccccc1Cl` [Example 32, 3-{[(1R)-1-(2-chlorophenyl)ethyl]oxy}-5-[5-(6-{[2-(4-morpholinyl)ethyl]amino}-3-pyridinyl)-1H-benzimidazol-1-yl]-2-thiophenecarboxamide] was tested. Which IC50 (PLK1 kinase domain) did it give?
The IC50 was under 0.1 µM.

What about the IC50 [1] of the same compound?
The IC50 was under 0.5 µM.

For `C[C@@H](Oc1cc(-n2cnc3cc(-c4ccnc(NC(=O)CN(C)C)c4)ccc32)sc1C(N)=O)c1ccccc1C(F)(F)F` [Example 3, 5-(5-{2-[(N,N-dimethylglycyl)amino]-4-pyridinyl}-1H-benzimidazol-1-yl)-3-({(1R)-1-[2-(trifluoromethyl)phenyl]ethyl}oxy)-2-thiophenecarboxamide], which IC50 (PLK1 kinase domain) is on record?
Its IC50 is under 0.1 µM.

What about the IC50 [1] of the same compound?
The IC50 was under 0.5 µM.

Which results are given for `C[C@@H](Oc1cc(-n2cnc3cc(-c4ccnc(NC[C@@H](O)CO)c4)ccc32)sc1C(N)=O)c1ccccc1Cl` [Example 13, 3-{[(1R)-1-(2-chlorophenyl)ethyl]oxy}-5-[5-(2-{[(2R)-2,3-dihydroxypropyl]amino}-4-pyridinyl)-1H-benzimidazol-1-yl]-2-thiophenecarboxamide]?
IC50 (PLK1 kinase domain): < 0.1 µM; IC50 [1]: < 0.5 µM

Reference: US20100056525A1, “5- AND 6- SUBSTITUTED BENZIMIDAZOLE THIOPHENE COMPOUNDS” (priority 2006, published 2010)
